# Results from patent US20250195530A1, “POLQ INHIBITORS” (ASTRAZENECA AB, priority 2022, published 2025).
# Read-outs that look alike come from different tables or passages of the source.
# Tests used:
# DLD-1 cells = assay: Inhibition of proliferation, DLD-1 BRCA2 wt control (Cell Titre Glo 3D); format: cell-based; settings: Homo sapiens, read-out: POLQ PD Prolif Lumin (converted)
# Method in brief: (§1)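 Proliferation of HR-deficient DLD-1 BRCA2−/− versus isogenic wild-type DLD-1 was measured by ATP luminescence (CellTiter-Glo 3D). Compound exposure lasted 12 or 7 days, respectively, with a fresh dose on day 6. IC50 was the concentration halving maximal signal.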
# DLD-1 BRCA2−/− cells = assay: Homologous recombination synthetic lethal inhibition of proliferation, DLD-1 BRCA2-/- (Cell Titre Glo 3D); format: cell-based; settings: Homo sapiens, taken as DLD-1 BRCA2-/-, read-out: POLQ PD Prolif Lumin (converted)
# Method in brief: as §1
# [1] = DLD-1, second proliferation column (c6), taken as DLD-1 BRCA2 wt
# [2] = DLD-1, first proliferation column (c5)
# [3] = DLD-1, proliferation, luminescence, second Prolif column (c6), taken as DLD-1 BRCA2 wt control
# [4] = DLD-1, proliferation, luminescence
SMILES,IC50 (DLD-1 cells; [1]),IC50 (DLD-1 cells; [3]),IC50 (DLD-1 BRCA2−/− cells; [2]),IC50 (DLD-1 BRCA2−/− cells; [4])
"CC1(Oc2ncnc3c2nc(-c2ccc(OCCN4CCNCC4)cc2Br)n3Cc2cc(Cl)ccn2)CC1 [Example T348, 8-(2-bromo-4-(2-(piperazin-1-yl)ethoxy)phenyl)-9-((4-chloropyridin-2-yl)methyl)-6-(1-methylcyclopropoxy)-9H-purine]",> 10000 nM,–,126 nM,–
"CC1(Oc2ncnc3c2nc(-c2ccc(OCCN4CCNCC4)cc2F)n3Cc2cc(Cl)ccn2)CC1 [Example T349, 9-((4-chloropyridin-2-yl)methyl)-8-(2-fluoro-4-(2-(piperazin-1-yl)ethoxy)phenyl)-6-(1-methylcyclopropoxy)-9H-purine]",> 10000 nM,–,631 nM,–
"CN(C)CCCOc1ccc(-c2nc3c(OC4(C)CC4)ncnc3n2Cc2cc(C(F)F)ccn2)c(Cl)c1 [Example T352, 3-(3-chloro-4-(9-((4-(difluoromethyl)pyridin-2-yl)methyl)-6-(1-methylcyclopropoxy)-9H-purin-8-yl)phenoxy)-N,N-dimethylpropan-1-amine]",> 10000 nM,–,158 nM,–
"Cc1ccnc(Cn2c(-c3ccc(CN4CC[C@@H](O)C4)cc3Cl)nc3c(OC4(C)CC4)ncnc32)c1 [Example T353, (R)-1-(3-chloro-4-(6-(1-methylcyclopropoxy)-9-((4-methylpyridin-2-yl)methyl)-9H-purin-8-yl)benzyl)pyrrolidin-3-ol]",> 10000 nM,–,316 nM,–
"Cc1ccnc(Cn2c(-c3ccc(OC4CCNCC4)cc3Cl)nc3c(OC4(C)CC4)ncnc32)c1 [Example T354, 8-(2-chloro-4-(piperidin-4-yloxy)phenyl)-6-(1-methylcyclopropoxy)-9-((4-methylpyridin-2-yl)methyl)-9H-purine]",> 10000 nM,–,501 nM,–
"Cc1ccnc(Cn2c(-c3ccc(CCN4CC(O)C4)cc3Cl)nc3c(OC4(C)CC4)ncnc32)c1 [Example T355, 1-(3-chloro-4-(6-(1-methylcyclopropoxy)-9-((4-methylpyridin-2-yl)methyl)-9H-purin-8-yl)phenethyl)azetidin-3-ol]",> 10000 nM,–,631 nM,–
"Cc1ccnc(Cn2c(-c3ccc(OC[C@H]4CCCN4)cc3Cl)nc3c(OC4(C)CC4)ncnc32)c1 [Example T356, (R)-8-(2-chloro-4-(pyrrolidin-2-ylmethoxy)phenyl)-6-(1-methylcyclopropoxy)-9-((4-methylpyridin-2-yl)methyl)-9H-purine]",> 10000 nM,–,200 nM,–
"Cc1ccnc(Cn2c(-c3ccc(CC(=O)NC(C)C)cc3Cl)nc3c(OC4(C)CC4)ncnc32)c1 [Example T357, 2-(3-chloro-4-(6-(1-methylcyclopropoxy)-9-((4-methylpyridin-2-yl)methyl)-9H-purin-8-yl)phenyl)-N-isopropylacetamide]",> 10000 nM,–,398 nM,–
"Cc1cnc(Cn2c(-c3ccc(OC4CC5(C4)CN(C)C5)cc3Cl)nc3c(OC4(C)CC4)ncnc32)s1 [Example T359, 2-((8-(2-chloro-4-((2-methyl-2-azaspiro[3.3]heptan-6-yl)oxy)phenyl)-6-(1-methylcyclopropoxy)-9H-purin-9-yl)methyl)-5-methylthiazole]",> 10000 nM,–,501 nM,–
"Cc1ccnc(Cn2c(-c3cccc(OCCN4CC(O)C4)c3Cl)nc3c(OC4(C)CC4)ncnc32)c1 [Example T360, 1-(2-(2-chloro-3-(6-(1-methylcyclopropoxy)-9-((4-methylpyridin-2-yl)methyl)-9H-purin-8-yl)phenoxy)ethyl)azetidin-3-ol]",> 10000 nM,–,794 nM,–
"Cc1ccnc(Cn2c(-c3ccc(C(=O)NCC(C)(C)O)cc3Cl)nc3c(OC4(C)CC4)ncnc32)c1 [Example T363, 3-chloro-N-(2-hydroxy-2-methylpropyl)-4-(6-(1-methylcyclopropoxy)-9-((4-methylpyridin-2-yl)methyl)-9H-purin-8-yl)benzamide]",> 10000 nM,–,794 nM,–
"Cc1ccnc(Cn2c(-c3ccc(CC(=O)N(C)CCO)cc3Cl)nc3c(OC4(C)CC4)ncnc32)c1 [Example T369, 2-(3-chloro-4-(6-(1-methylcyclopropoxy)-9-((4-methylpyridin-2-yl)methyl)-9H-purin-8-yl)phenyl)-N-(2-hydroxyethyl)-N-methylacetamide]",> 10000 nM,–,1000 nM,–
"Cc1ccnc(Cn2c(-c3ccc(CC(=O)NC[C@H](C)O)cc3Cl)nc3c(OC4(C)CC4)ncnc32)c1 [Example T371, (S)-2-(3-chloro-4-(6-(1-methylcyclopropoxy)-9-((4-methylpyridin-2-yl)methyl)-9H-purin-8-yl)phenyl)-N-(2-hydroxypropyl)acetamide]",> 10000 nM,–,1000 nM,–
"CN(C)CCCOc1ccc(-c2nc3c(OC4(C)CC4)nccc3n2Cc2cc(Cl)ccn2)c(Cl)c1 [Example T377, 3-(3-chloro-4-(1-((4-chloropyridin-2-yl)methyl)-4-(1-methylcyclopropoxy)-1H-imidazo[4,5-c]pyridin-2-yl)phenoxy)-N,N-dimethylpropan-1-amine]",> 7940 nM,–,158 nM,–
"CC1(Oc2ncnc3c2nc(-c2ccc(OCCN4CCNCC4)cc2Cl)n3Cc2ccnc(Cl)c2)CC1 [Example T378, 8-(2-chloro-4-(2-(piperazin-1-yl)ethoxy)phenyl)-9-((2-chloropyridin-4-yl)methyl)-6-(1-methylcyclopropoxy)-9H-purine]",> 10000 nM,–,1580 nM,–

# The next lines start with results.
IC50 (DLD-1 cells; [1]),IC50 (DLD-1 cells; [3]),SMILES,IC50 (DLD-1 BRCA2−/− cells; [2]),IC50 (DLD-1 BRCA2−/− cells; [4])
> 10000 nM,–,"CC1(Oc2ncnc3c2nc(-c2ccc(OCCN4CCNCC4)cc2Cl)n3Cc2cncc(Cl)c2)CC1 [Example T379, 8-(2-chloro-4-(2-(piperazin-1-yl)ethoxy)phenyl)-9-((5-chloropyridin-3-yl)methyl)-6-(1-methylcyclopropoxy)-9H-purine]",251 nM,–
> 10000 nM,–,"CC1(Oc2ncnc3c2nc(-c2ccc(OCCN4CCN(S(=O)(=O)O)CC4)cc2Cl)n3Cc2cc(Cl)ccn2)CC1 [Example T380, 4-(2-(3-chloro-4-(9-((4-chloropyridin-2-yl)methyl)-6-(1-methylcyclopropoxy)-9H-purin-8-yl)phenoxy)ethyl)piperazine-1-sulfonic acid]",7940 nM,–
> 10000 nM,–,"Cc1ccnc(Cn2c(-c3ccc(OCCC(C)(C)O)cc3Cl)nc3c(OC4(C)CC4)ncnc32)c1 [Example T382, 4-(3-chloro-4-(6-(1-methylcyclopropoxy)-9-((4-methylpyridin-2-yl)methyl)-9H-purin-8-yl)phenoxy)-2-methylbutan-2-ol]",100 nM,–
> 10000 nM,–,"Cc1ccnc(Cn2c(-c3ccc(OCCCN(C)C)cc3Cl)nc3c(OC4(C)CC4)ncnc32)c1 [Example T385, 3-(3-chloro-4-(6-(1-methylcyclopropoxy)-9-((4-methylpyridin-2-yl)methyl)-9H-purin-8-yl)phenoxy)-N,N-dimethylpropan-1-amine]",79.4 nM,–
> 10000 nM,–,"Cc1ccnc(Cn2c(-c3cccc(OCCCN(C)C)c3Cl)nc3c(OC4(C)CC4)ncnc32)c1 [Example T386, 3-(2-chloro-3-(6-(1-methylcyclopropoxy)-9-((4-methylpyridin-2-yl)methyl)-9H-purin-8-yl)phenoxy)-N,N-dimethylpropan-1-amine]",100 nM,–
> 10000 nM,–,"Cc1cnc(Cn2c(-c3ccc(OCCCN4CCCC4)cc3Cl)nc3c(OC4(C)CC4)ncnc32)s1 [Example T388, 2-((8-(2-chloro-4-(3-(pyrrolidin-1-yl)propoxy)phenyl)-6-(1-methylcyclopropoxy)-9H-purin-9-yl)methyl)-5-methylthiazole]",251 nM,–
–,> 10000 nM,"Cc1cnc(Cn2c(-c3ccc(OCCCN4CC[C@@H](O)C4)cc3Cl)nc3c(OC4(C)CC4)ncnc32)s1 [Example T391, (R)-1-(3-(3-chloro-4-(6-(1-methylcyclopropoxy)-9-((5-methylthiazol-2-yl)methyl)-9H-purin-8-yl)phenoxy)propyl)pyrrolidin-3-ol]",–,501 nM
–,794 nM,"Cc1cnc(Cn2c(-c3cccc(OCCCN4CC[C@@H](O)C4)c3Cl)nc3c(OC4(C)CC4)ncnc32)s1 [Example T392, (R)-1-(3-(2-chloro-3-(6-(1-methylcyclopropoxy)-9-((5-methylthiazol-2-yl)methyl)-9H-purin-8-yl)phenoxy)propyl)pyrrolidin-3-ol]",–,794 nM
–,> 10000 nM,"Cc1cnc(Cn2c(-c3ccc(OCCN4CCNC[C@@H]4C)cc3Cl)nc3c(OC4(C)CC4)ncnc32)s1 [Example T393, (S)-2-((8-(2-chloro-4-(2-(2-methylpiperazin-1-yl)ethoxy)phenyl)-6-(1-methylcyclopropoxy)-9H-purin-9-yl)methyl)-5-methylthiazole]",–,794 nM
–,> 10000 nM,"C[C@H](CCOc1ccc(-c2nc3c(OC4(C)CC4)ncnc3n2Cc2cccc(C#N)c2)c(Cl)c1)C(=O)O [Example T401, (R)-4-(3-chloro-4-(9-(3-cyanobenzyl)-6-(1-methylcyclopropoxy)-9H-purin-8-yl)phenoxy)-2-methylbutanoic acid]",–,398 nM
–,> 10000 nM,"C[C@H](CCOc1ccc(-c2nc3c(OC4(C)CC4)ncnc3n2Cc2ccccc2C#N)c(Cl)c1)C(=O)O [Example T402, (R)-4-(3-chloro-4-(9-(2-cyanobenzyl)-6-(1-methylcyclopropoxy)-9H-purin-8-yl)phenoxy)-2-methylbutanoic acid]",–,398 nM
–,> 10000 nM,"C[C@@H](CCOc1ccc(-c2nc3c(OC4(C)CC4)ncnc3n2Cc2ccccc2C#N)c(Cl)c1)C(=O)O [Example T403, (S)-4-(3-chloro-4-(9-(2-cyanobenzyl)-6-(1-methylcyclopropoxy)-9H-purin-8-yl)phenoxy)-2-methylbutanoic acid]",–,398 nM
